Results from US12030904B2 (priority 2020, dated 2024).
Read-outs that look alike come from different tables or passages of the source.

Key:
[1] = test system: Recombinant Respiratory Syncytial virus strain A2 containing the firefly luciferase reporter (RSV-Fluc); test: microbe, parasite or virus in culture; format: cell-based
SARS-CoV-2 = test: microbe, parasite or virus in culture; format: cell-based
[2] = A549 cytotoxicity analysis (CellTiter-Glo); format: cell-based; conditions: human, A549 cells
Experimental: The cytotoxicity of compounds was determined in A549 cells in the following manner. Compounds (40 nL) were spotted onto 384-well Grenier plates prior to seeding 5000 A549 cells/well in a volume of 40 μL culture medium. The plates were incubated at 37° C. for 48 hours with 5% CO2. On day 2, 40 μL of CellTiter-Glo (Promega) was added and mixed 5 times. Plates were read for luminescence on an Envision (PerkinElmer) and the CC50 (compound concentration for reducing 50% of luminescence signal as a measure of cell viability) were calculated using a nonlinear regression model (four parameters). Two experiments were performed with technical duplicates.

MT4 cytotoxicity (CC50) = conditions: human, MT4 cells
MT4 = MT4 cytotoxicity (CC50); conditions: read-out: MT4 CC50; Table 2a
[3] = human respiratory syncytial virus, NHBE, 72 h, read-out: RSV-Fluc EC50 (NHBE), NHBE cells, three days, Table 1
[4] = Severe acute respiratory syndrome coronavirus 2, 48 h, read-out: SARS-CoV-2 EC50
[5] = human respiratory syncytial virus, NHBE, 72 h, read-out: RSV-Fluc EC50 (NHBE), NHBE cells, three days, Table 2
[6] = human respiratory syncytial virus, NHBE, read-out: RSV EC50, Table 2a
[7] = Severe acute respiratory syndrome coronavirus 2, Table 3, read-out: SARS-CoV-2 EC50
[8] = Severe acute respiratory syndrome coronavirus 2, read-out: SARS EC50

SMILES | EC50 [1, 3] | EC50 (SARS-CoV-2; [4]) | CC50 at 48 h ([2]; 48 hours, Table 1) | CC50 (MT4 cytotoxicity (CC50); MT4 CC50, Table 1a) | other results
CCCCCCCCCCCCCCCCCCOC[C@H](COP(=O)(O)OC[C@H]1O[C@@](C#N)(c2ccc3c(N)ncnn23)[C@H](O)[C@@H]1O)OCc1cc(F)cc(C#N)c1 [Example 16, [(2R,3S,4R,5R)-5-(4-aminopyrrolo[2,1-f][1,2,4]triazin-7-yl)-5-cyano-3,4-dihydroxy-tetrahydrofuran-2-yl]methyl [(2R)-2-[(3-cyano-5-fluoro-phenyl)methoxy]-3-octadecoxy-propyl] hydrogen phosphate] | 60 nM | 220 nM | 18000 nM | 433 nM | 
CCCCCCCCCCCCCCCCCCOC[C@H](COP(=O)(O)OC[C@H]1O[C@@](C#N)(c2ccc3c(N)ncnn23)[C@H](O)[C@@H]1O)OCc1cc(F)cc(F)c1 [Example 15, [(2R,3S,4R,5R)-5-(4-aminopyrrolo[2,1-f][1,2,4]triazin-7-yl)-5-cyano-3,4-dihydroxy-tetrahydrofuran-2-yl]methyl [(2R)-2-[(3,5-difluorophenyl)methoxy]-3-octadecoxy-propyl] hydrogen phosphate] | 80 nM | 260 nM | 13000 nM | 3310 nM | 
CCCCCCCCCCCCCCCCCCOC[C@H](COP(=O)(O)OC[C@H]1O[C@@](C#N)(c2ccc3c(N)ncnn23)[C@H](O)[C@@H]1O)OCc1ccc(C#N)cc1 [Example 9, ((2R,3S,4R,5R)-5-(4-aminopyrrolo[2,1-f][1,2,4]triazin-7-yl)-5-cyano-3,4-dihydroxytetrahydrofuran-2-yl)methyl ((R)-2-((4-cyanobenzyl)oxy)-3-(octadecyloxy)propyl) hydrogen phosphate] | 50 nM | 270 nM | 30000 nM | 1430 nM | 
CCCCCCCC/C=C\CCCCCCCCOC[C@H](COP(=O)(O)OC[C@H]1O[C@@](C#N)(c2ccc3c(N)ncnn23)[C@H](O)[C@@H]1O)OCc1cc(F)cc(C#N)c1 [Example 69, ((2R,3S,4R,5R)-5-(4-aminopyrrolo[2,1-f][1,2,4]triazin-7-yl)-5-cyano-3,4-dihydroxytetrahydrofuran-2-yl)methyl ((R)-2-((3-cyano-5-fluorobenzyl)oxy)-3-(((Z)-octadec-9-en-1-yl)oxy)propyl) hydrogen phosphate] |  |  |  |  | EC50 [1, 5]: 24 nM; EC50 [1, 6]: 23 nM; EC50 (SARS-CoV-2; [7]): 150 nM; EC50 (SARS-CoV-2; [8]): 150 nM; CC50 at 48 h ([2]; Table 3): 860 nM; CC50 (MT4 cytotoxicity (CC50); MT4 CC50, Table 2a): 730 nM
CCCCCCCCCCCCCCCCCCOC[C@H](COP(=O)(O)OC[C@H]1O[C@@](C#N)(c2ccc3c(N)ncnn23)[C@H](O)[C@@H]1O)OCc1ccccc1 [Example 1, ((2R,3S,4R,5R)-5-(4-aminopyrrolo[2,1-f][1,2,4]triazin-7-yl)-5-cyano-3,4-dihydroxytetrahydrofuran-2-yl)methyl ((R)-2-(benzyloxy)-3-(octadecyloxy)propyl) hydrogen phosphate] | 90 nM | 940 nM | 20000 nM | 3960 nM | 
CCCCCCCCCCCCCCCCOC[C@H](COP(=O)(O)OC[C@H]1O[C@@](C#N)(c2ccc3c(N)ncnn23)[C@H](O)[C@@H]1O)OCc1cc(F)cc(C#N)c1 [Example 71, ((2R,3S,4R,5R)-5-(4-aminopyrrolo[2,1-f][1,2,4]triazin-7-yl)-5-cyano-3,4-dihydroxytetrahydrofuran-2-yl)methyl ((R)-2-((3-cyano-5-fluorobenzyl)oxy)-3-(hexadecyloxy)propyl) hydrogen phosphate] |  |  |  |  | EC50 [1, 5]: 30 nM; EC50 [1, 6]: 3 nM; EC50 (SARS-CoV-2; [7]): 130 nM; EC50 (SARS-CoV-2; [8]): 130 nM; CC50 at 48 h ([2]; Table 3): 370 nM; CC50 (MT4 cytotoxicity (CC50); MT4 CC50, Table 2a): 404 nM
CCCCCCCCCCCCCCCCOC[C@H](COP(=O)(O)OC[C@H]1O[C@@](C#N)(c2ccc3c(N)ncnn23)[C@H](O)[C@@H]1O)OCc1ccccc1 [Example 5, ((2R,3S,4R,5R)-5-(4-aminopyrrolo[2,1-f][1,2,4]triazin-7-yl)-5-cyano-3,4-dihydroxytetrahydrofuran-2-yl)methyl ((R)-2-(benzyloxy)-3-(hexadecyloxy)propyl) hydrogen phosphate] | 50 nM | 480 nM | 19000 nM | 6290 nM | 
CCCCCCCCCCCCCCCCCCOC[C@H](COP(=O)(O)OC[C@H]1O[C@@](C#N)(c2ccc3c(N)ncnn23)[C@H](O)[C@@H]1OC(=O)C(C)C)OCc1ccccc1 [Example 12, (2R,3S,4R,5R)-5-(4-aminopyrrolo[2,1-f][1,2,4]triazin-7-yl)-2-(((((R)-2-(benzyloxy)-3-(octadecyloxy)propoxy)(hydroxy)phosphoryl)oxy)methyl)-5-cyano-4-hydroxytetrahydrofuran-3-yl isobutyrate] | 260 nM | 3200 nM | 50000 nM | 50000 nM | 
CCCCCCCCCCCCCCCCCCOC[C@H](COP(=O)(O)OC[C@H]1O[C@@](C#N)(c2ccc3c(N)ncnn23)[C@H](O)[C@@H]1O)Oc1ccc(C#N)c(OC(C)C)c1 [Example 72, ((2R,3S,4R,5R)-5-(4-aminopyrrolo[2,1-f][1,2,4]triazin-7-yl)-5-cyano-3,4-dihydroxytetrahydrofuran-2-yl)methyl ((R)-2-(4-cyano-3-isopropoxyphenoxy)-3-(octadecyloxy)propyl) hydrogen phosphate] |  |  |  |  | EC50 [1, 5]: 8 nM; EC50 [1, 6]: 17 nM; EC50 (SARS-CoV-2; [8]): 8350 nM; CC50 at 48 h ([2]; Table 3): 240 nM; CC50 (MT4 cytotoxicity (CC50); MT4 CC50, Table 2a): 279 nM
CCCCCCCCCCCCCCCCCCCOC[C@H](COP(=O)(O)OC[C@H]1O[C@@](C#N)(c2ccc3c(N)ncnn23)[C@H](O)[C@@H]1O)OCc1ccccc1 [Example 7, ((2R,3S,4R,5R)-5-(4-aminopyrrolo[2,1-f][1,2,4]triazin-7-yl)-5-cyano-3,4-dihydroxytetrahydrofuran-2-yl)methyl ((R)-2-(benzyloxy)-3-(nonadecyloxy)propyl) hydrogen phosphate] | 80 nM | 370 nM | > 50000 nM | 13900 nM | 
CCCCCCCCCCCCCCCCCCOC[C@H](COP(=O)(O)OC[C@H]1O[C@@](C#N)(c2ccc3c(N)ncnn23)[C@H](O)[C@@H]1O)OCC1CCCCC1 [Example 3, ((2R,3S,4R,5R)-5-(4-aminopyrrolo[2,1-f][1,2,4]triazin-7-yl)-5-cyano-3,4-dihydroxytetrahydrofuran-2-yl)methyl ((R)-2-(cyclohexylmethoxy)-3-(octadecyloxy)propyl) hydrogen phosphate] | 120 nM | 340 nM | 19000 nM | 14000 nM | 
CCCCCCCCCCCCCCCCCCOC[C@H](COP(=O)(O)OC[C@H]1O[C@@](C#N)(c2ccc3c(N)ncnn23)[C@H](O)[C@@H]1O)OCc1ccc(C(F)(F)F)cc1 [Example 11, ((2R,3S,4R,5R)-5-(4-aminopyrrolo[2,1-f][1,2,4]triazin-7-yl)-5-cyano-3,4-dihydroxytetrahydrofuran-2-yl)methyl ((R)-3-(octadecyloxy)-2-((4-(trifluoromethyl)benzyl)oxy)propyl) hydrogen phosphate] | 60 nM | 350 nM | > 50000 nM | 14500 nM | 
CCCCCCCCCCCCCCCCCCOC[C@H](COP(=O)(O)OC[C@H]1O[C@@](C#N)(c2ccc3c(N)ncnn23)[C@H](O)[C@@H]1O)OC(C)c1ccccc1 (single isomer, unassigned) [Example 28] |  |  |  |  | EC50 ([1]; read-out: RSV EC50, Table 2a): 75 nM; EC50 ([1]; read-out: RSV-Fluc EC50 (NHBE), NHBE cells, three days, Table 2): 70 nM; EC50 (SARS-CoV-2; read-out: SARS EC50): 2300 nM; CC50 (MT4): 1060 nM
CCCCCCCCCCCCCCCCCCCCOC[C@H](COP(=O)(O)OC[C@H]1O[C@@](C#N)(c2ccc3c(N)ncnn23)[C@H](O)[C@@H]1O)OCc1ccccc1 [Example 8, ((2R,3S,4R,5R)-5-(4-aminopyrrolo[2,1-f][1,2,4]triazin-7-yl)-5-cyano-3,4-dihydroxytetrahydrofuran-2-yl)methyl ((R)-2-(benzyloxy)-3-(icosyloxy)propyl) hydrogen phosphate] | 110 nM | 800 nM | 23000 nM | 33400 nM | 
